Common to all, as to assay: relative viability (nuclei count vs DMSO), 5 days (fraction); higher = more cells survive
Compound in assay [1]: CO[C@H]1C[C@@H]2CC[C@@H](C)[C@@](O)(O2)C(=O)C(=O)N2CCCC[C@H]2C(=O)O[C@H]([C@H](C)C[C@@H]2CC[C@@H](OCCO)[C@H](OC)C2)CC(=O)[C@H](C)/C=C(\C)[C@@H](O)[C@@H](OC)C(=O)[C@H](C)C[C@H](C)/C=C/C=C/C=C/1C [Everolimus] + COc1cc2c(Oc3ccc(NC(=O)C4(C(=O)Nc5ccc(F)cc5)CC4)cc3F)ccnc2cc1OCCCN1CCOCC1 [Foretinib] (partner 0.25 µM)
The method, boiled down: (§1)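 Values are medians from duplicate plates. Each reflects relative viability, defined as the nuclei count of treated wells over that of vehicle wells. Lung cancer cell lines in 1536-well plates were pin-tool dosed one day after seeding with one drug alone or with a fixed anchor-drug dose plus five library-drug doses (not always all listed) in √10 steps, then fixed, stained and imaged at 4× after 5 days.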

Compound in assay [2]: CO[C@H]1C[C@@H]2CC[C@@H](C)[C@@](O)(O2)C(=O)C(=O)N2CCCC[C@H]2C(=O)O[C@H]([C@H](C)C[C@@H]2CC[C@@H](OCCO)[C@H](OC)C2)CC(=O)[C@H](C)/C=C(\C)[C@@H](O)[C@@H](OC)C(=O)[C@H](C)C[C@H](C)/C=C/C=C/C=C/1C [Everolimus] + Cc1nc(Nc2ncc(C(=O)Nc3c(C)cccc3Cl)s2)cc(N2CCN(CCO)CC2)n1 [Dasatinib] (partner 0.075 µM)
Put shortly:
as §1

Compound in assay [3]: CO[C@H]1C[C@@H]2CC[C@@H](C)[C@@](O)(O2)C(=O)C(=O)N2CCCC[C@H]2C(=O)O[C@H]([C@H](C)C[C@@H]2CC[C@@H](OCCO)[C@H](OC)C2)CC(=O)[C@H](C)/C=C(\C)[C@@H](O)[C@@H](OC)C(=O)[C@H](C)C[C@H](C)/C=C/C=C/C=C/1C [Everolimus] + CCNC(=O)c1noc(-c2cc(C(C)C)c(O)cc2O)c1-c1ccc(CN2CCOCC2)cc1 [Luminespib] (partner 0.01 µM)
Put shortly: as §1

Compound in assay [4]: CO[C@H]1C[C@@H]2CC[C@@H](C)[C@@](O)(O2)C(=O)C(=O)N2CCCC[C@H]2C(=O)O[C@H]([C@H](C)C[C@@H]2CC[C@@H](OCCO)[C@H](OC)C2)CC(=O)[C@H](C)/C=C(\C)[C@@H](O)[C@@H](OC)C(=O)[C@H](C)C[C@H](C)/C=C/C=C/C=C/1C [Everolimus] + Nc1ncn([C@H]2C[C@H](O)[C@@H](CO)O2)c(=O)n1 [Decitabine] (partner 2 µM)
The method, boiled down: as §1

Regarding NCI-H1944, the relative viability in assay [1] (first compound 0.01 µM) worked out at 0.572; in assay [1] (first compound 0.03162 µM), 0.583; in assay [1] (first compound 0.1 µM) it was 0.608; in assay [1] (first compound 0.3162 µM) it was 0.629; in assay [1] (first compound 1 µM), 0.658; in assay [2] (first compound 0.01 µM) it was 0.179. Moreover, the relative viability was 0.193 in assay [2] (first compound 0.03162 µM); 0.157 in assay [2] (first compound 0.1 µM); 0.184 in assay [2] (first compound 0.3162 µM); 0.157 in assay [2] (first compound 1 µM); 0.436 in assay [3] (first compound 0.01 µM); 0.447 in assay [3] (first compound 0.03162 µM). In addition, the relative viability came out at 0.374 in assay [3] (first compound 0.1 µM); 0.429 in assay [3] (first compound 0.3162 µM); 0.345 in assay [3] (first compound 1 µM); 0.409 in assay [4] (first compound 0.01 µM); 0.409 in assay [4] (first compound 0.03162 µM); 0.386 in assay [4] (first compound 0.1 µM). The relative viability in assay [4] (first compound 0.3162 µM) is 0.396; in assay [4] (first compound 1 µM), 0.355.
As to NCI-H1975, the relative viability in assay [1] (first compound 0.01 µM) amounted to 0.765; in assay [1] (first compound 0.03162 µM), 0.67; in assay [1] (first compound 0.1 µM) it was 0.714; in assay [1] (first compound 0.3162 µM), 0.748; in assay [1] (first compound 1 µM), 0.579; in assay [2] (first compound 0.01 µM), 0.305. Further, the relative viability in assay [2] (first compound 0.03162 µM) turned out to be 0.264; in assay [2] (first compound 0.1 µM), 0.222; in assay [2] (first compound 0.3162 µM), 0.298; in assay [2] (first compound 1 µM), 0.183; in assay [3] (first compound 0.01 µM) it was 0.158; in assay [3] (first compound 0.03162 µM) it was 0.169. Besides, the relative viability in assay [3] (first compound 0.1 µM) was 0.194; in assay [3] (first compound 0.3162 µM), 0.191; in assay [3] (first compound 1 µM) it was 0.287; in assay [4] (first compound 0.01 µM), 0.365; in assay [4] (first compound 0.03162 µM), 0.425; in assay [4] (first compound 0.1 µM), 0.327. For the same cell line, the figures for the relative viability in assay [4] (first compound 0.3162 µM) and in assay [4] (first compound 1 µM) were 0.385 and 0.337, respectively.
As for NCI-H1993, the relative viability in assay [1] (first compound 0.01 µM) was determined as 0.554; in assay [1] (first compound 0.03162 µM), 0.592; in assay [1] (first compound 0.1 µM), 0.667; in assay [1] (first compound 0.3162 µM), 0.628; in assay [1] (first compound 1 µM), 0.627; in assay [2] (first compound 0.01 µM), 0.434. The relative viability in assay [2] (first compound 0.03162 µM) came to 0.449; in assay [2] (first compound 0.1 µM) it was 0.341; in assay [2] (first compound 0.3162 µM), 0.409; in assay [2] (first compound 1 µM), 0.452; in assay [3] (first compound 0.01 µM), 0.528; in assay [3] (first compound 0.03162 µM) it was 0.459. Further, the relative viability came out at 0.366 in assay [3] (first compound 0.1 µM); 0.456 in assay [3] (first compound 0.3162 µM); 0.58 in assay [3] (first compound 1 µM); 0.468 in assay [4] (first compound 0.01 µM); 0.542 in assay [4] (first compound 0.03162 µM); 0.433 in assay [4] (first compound 0.1 µM). The relative viability in assay [4] (first compound 0.3162 µM) is 0.46; in assay [4] (first compound 1 µM) it was 0.447.
In the case of NCI-H2009, the relative viability in assay [1] (first compound 0.01 µM) stood at 0.961; in assay [1] (first compound 0.03162 µM) it was 1.04; in assay [1] (first compound 0.1 µM), 0.826; in assay [1] (first compound 0.3162 µM), 1.04; in assay [1] (first compound 1 µM), 0.936; in assay [2] (first compound 0.01 µM), 0.214. Also, the relative viability in assay [2] (first compound 0.03162 µM) turned out to be 0.218; in assay [2] (first compound 0.1 µM), 0.225; in assay [2] (first compound 0.3162 µM) it was 0.244; in assay [2] (first compound 1 µM) it was 0.215; in assay [3] (first compound 0.01 µM), 0.832; in assay [3] (first compound 0.03162 µM), 0.866. Moreover, the relative viability in assay [3] (first compound 0.1 µM) stood at 0.77; in assay [3] (first compound 0.3162 µM), 0.852; in assay [3] (first compound 1 µM) it was 0.72; in assay [4] (first compound 0.01 µM) it was 0.295; in assay [4] (first compound 0.03162 µM) it was 0.313; in assay [4] (first compound 0.1 µM), 0.382. For the same cell line, the relative viability came out at 0.288 in assay [4] (first compound 0.3162 µM) and 0.377 in assay [4] (first compound 1 µM).
For NCI-H2023, the relative viability was 0.503 in assay [1] (first compound 0.01 µM); 0.404 in assay [1] (first compound 0.03162 µM); 0.424 in assay [1] (first compound 0.1 µM); 0.358 in assay [1] (first compound 0.3162 µM); 0.376 in assay [1] (first compound 1 µM); 0.343 in assay [2] (first compound 0.01 µM). In addition, the relative viability amounted to 0.301 in assay [2] (first compound 0.03162 µM); 0.243 in assay [2] (first compound 0.1 µM); 0.239 in assay [2] (first compound 0.3162 µM); 0.222 in assay [2] (first compound 1 µM); 0.309 in assay [3] (first compound 0.01 µM); 0.269 in assay [3] (first compound 0.03162 µM). The relative viability in assay [3] (first compound 0.1 µM) turned out to be 0.413; in assay [3] (first compound 0.3162 µM), 0.266; in assay [3] (first compound 1 µM) it was 0.219; in assay [4] (first compound 0.01 µM), 0.204; in assay [4] (first compound 0.03162 µM), 0.21; in assay [4] (first compound 0.1 µM), 0.198. Further, the relative viability in assay [4] (first compound 0.3162 µM) stood at 0.199; in assay [4] (first compound 1 µM) it was 0.168.
As to NCI-H2085, the relative viability is 0.812 in assay [1] (first compound 0.01 µM); 0.584 in assay [1] (first compound 0.03162 µM); 0.617 in assay [1] (first compound 0.1 µM); 0.777 in assay [1] (first compound 0.3162 µM); 0.695 in assay [1] (first compound 1 µM); 0.237 in assay [2] (first compound 0.01 µM). Also, the relative viability in assay [2] (first compound 0.03162 µM) was 0.232; in assay [2] (first compound 0.1 µM), 0.254; in assay [2] (first compound 0.3162 µM), 0.215; in assay [2] (first compound 1 µM) it was 0.234; in assay [3] (first compound 0.01 µM) it was 0.258; in assay [3] (first compound 0.03162 µM), 0.28. Also, the relative viability turned out to be 0.349 in assay [3] (first compound 0.1 µM); 0.319 in assay [3] (first compound 0.3162 µM); 0.304 in assay [3] (first compound 1 µM); 0.508 in assay [4] (first compound 0.01 µM); 0.536 in assay [4] (first compound 0.03162 µM); 0.483 in assay [4] (first compound 0.1 µM). In addition, the relative viability in assay [4] (first compound 0.3162 µM) amounted to 0.478; in assay [4] (first compound 1 µM) it was 0.395.
With NCI-H2087, the relative viability came out at 0.704 in assay [1] (first compound 0.01 µM); 0.662 in assay [1] (first compound 0.03162 µM); 0.739 in assay [1] (first compound 0.1 µM); 0.875 in assay [1] (first compound 0.3162 µM); 0.713 in assay [1] (first compound 1 µM); 0.748 in assay [2] (first compound 0.01 µM). The relative viability in assay [2] (first compound 0.03162 µM) is 0.648; in assay [2] (first compound 0.1 µM), 0.695; in assay [2] (first compound 0.3162 µM), 0.786; in assay [2] (first compound 1 µM) it was 0.667; in assay [3] (first compound 0.01 µM), 0.168; in assay [3] (first compound 0.03162 µM), 0.205. The relative viability is 0.146 in assay [3] (first compound 0.1 µM); 0.143 in assay [3] (first compound 0.3162 µM); 0.15 in assay [3] (first compound 1 µM); 0.229 in assay [4] (first compound 0.01 µM); 0.205 in assay [4] (first compound 0.03162 µM); 0.2 in assay [4] (first compound 0.1 µM). In addition, the values for the relative viability in assay [4] (first compound 0.3162 µM) and in assay [4] (first compound 1 µM) were 0.198 and 0.257, respectively.

For the origin of these results see the supplement of paper PMC10307832.
